Laboratory results reported in patent publication US20250154141A1 (University of Florida Research Foundation, Incorporated, priority 2021, published 2025).
Like-named read-outs stand apart in the source and are kept apart here.

Experiments:
MOLT-4 = experiment: Cell viability assay (MTS) in MOLT-4 cells; assay type: cell-based; conditions: Homo sapiens
Procedure: (§1) Acute lymphoblastic leukemia cells (MOLT-4 and RS4; 11) were incubated with increasing concentrations of Bcl-xL degraders for 48 h. Cell viability was measured by tetrazolium-based MTS assay.

RS4; 11 = experiment: Cell viability assay (MTS) in RS4; 11 cells; assay type: cell-based; set-up: Anti-Cancer Activity IC50 (48 hr) RS4; 11: scale not given here; conditions: for IC50: Homo sapiens
Procedure: as §1

[1] = MOLT-4, Table 2, 48 hr, MTS, read-out: Anti-Cancer Activity IC50 (48 hr) MOLT-4
[2] = RS4-11, Table 2, 48 hr, MTS, read-out: Anti-Cancer Activity IC50 (48 hr) RS4, 11
[3] = MOLT-4, Table 4, 48 h, read-out: MOLT-4 48 h IC50
[4] = RS4-11, Table 4, 48 h, read-out: RS4 48 h IC50

Row | Structure (SMILES) | IC50 (MOLT-4; [1]) | IC50 (RS4; 11; [2]) | other results
1 | Cc1ncsc1-c1ccc([C@H](C)NC(=O)[C@@H]2C[C@@H](O)CN2C(=O)[C@@H](NC(=O)CCCCCCC(=O)N2CCN(C[C@]3(C)CCC(c4ccc(Cl)cc4)=C(CN4CCN(c5ccc(C(=O)NS(=O)(=O)c6ccc(N[C@H](CCN7CCCCC7)CSc7ccccc7)c(S(=O)(=O)C(F)(F)F)c6)cc5)CC4)C3)CC2)C(C)(C)C)cc1 [Compound 58, (2S,4R)-1-((S)-2-(8-(4-(((R)-4′-chloro-4-methyl-6-((4-(4-(((4-(((R)-1-(phenylthio)-4-(piperidin-1-yl)butan-2-yl)amino)-3-((trifluoromethyl)sulfonyl)phenyl)sulfonyl)carbamoyl)phenyl)piperazin-1-yl)methyl)-2,3,4,5-tetrahydro-[1,1′-biphenyl]-4-yl)methyl)piperazin-1-yl)-8-oxooctanamido)-3,3-dimethylbutanoyl)-4-hydroxy-N—((S)-1-(4-(4-methylthiazol-5-yl)phenyl)ethyl)pyrrolidine-2-carboxamide] | < 20 nM | < 20 nM | –
2 | Cc1ncsc1-c1ccc([C@H](C)NC(=O)[C@@H]2C[C@@H](O)CN2C(=O)[C@@H](NC(=O)CCCCCCC(=O)N2CCN(C[C@]3(C)CCC(c4ccc(Cl)cc4)=C(CN4CCN(c5ccc(C(=O)NS(=O)(=O)c6ccc(N[C@H](CCN7CCCOCC7)CSc7ccccc7)c(S(=O)(=O)C(F)(F)F)c6)cc5)CC4)C3)CC2)C(C)(C)C)cc1 [Compound 59, (2S,4R)-1-((S)-2-(8-(4-(((R)-6-((4-(4-(((4-(((R)-4-(1,4-oxazepan-4-yl)-1-(phenylthio)butan-2-yl)amino)-3-((trifluoromethyl)sulfonyl)phenyl)sulfonyl)carbamoyl)phenyl)piperazin-1-yl)methyl)-4′-chloro-4-methyl-2,3,4,5-tetrahydro-[1,1′-biphenyl]-4-yl)methyl)piperazin-1-yl)-8-oxooctanamido)-3,3-dimethylbutanoyl)-4-hydroxy-N—((S)-1-(4-(4-methylthiazol-5-yl)phenyl)ethyl)pyrrolidine-2-carboxamide] | < 20 nM | < 20 nM | IC50 (MOLT-4; [3]): 0.7 nM; IC50 (RS4; 11; [4]): 1.6 nM
3 | Cc1ncsc1-c1ccc([C@H](C)NC(=O)[C@@H]2C[C@@H](O)CN2C(=O)[C@@H](NC(=O)CCCCCC(=O)N2CCN(CC3CCN(CC4(C)CCC(c5ccc(Cl)cc5)=C(CN5CCN(c6ccc(C(=O)NS(=O)(=O)c7ccc(N[C@H](CCN8CCOCC8)CSc8ccccc8)c(S(=O)(=O)C(F)(F)F)c7)cc6)CC5)C4)CC3)CC2)C(C)(C)C)cc1 (stereo partly shown) [Compound 19] | < 20 nM | 20 to 100 nM | –
4 | Cc1ncsc1-c1ccc([C@H](C)NC(=O)[C@@H]2C[C@@H](O)CN2C(=O)[C@@H](NC(=O)CCCCCCC(=O)N2CCN(C[C@]3(C)CCC(c4ccc(Cl)cc4)=C(CN4CCN(c5ccc(C(=O)NS(=O)(=O)c6ccc(N[C@H](CCN7CCOC(C)C7)CSc7ccccc7)c(S(=O)(=O)C(F)(F)F)c6)cc5)CC4)C3)CC2)C(C)(C)C)cc1 (stereo partly drawn) [Compound 91, (2S,4R)-1-((2S)-2-(8-(4-(((4R)-4′-chloro-4-methyl-6-((4-(4-(((4-(((2R)-4-(2-methylmorpholino)-1-(phenylthio)butan-2-yl)amino)-3-((trifluoromethyl)sulfonyl)phenyl)sulfonyl)carbamoyl)phenyl)piperazin-1-yl)methyl)-2,3,4,5-tetrahydro-[1,1′-biphenyl]-4-yl)methyl)piperazin-1-yl)-8-oxooctanamido)-3,3-dimethylbutanoyl)-4-hydroxy-N—((S)-1-(4-(4-methylthiazol-5-yl)phenyl)ethyl)pyrrolidine-2-carboxamide] | < 20 nM | < 20 nM | –
5 | Cc1ncsc1-c1ccc([C@H](C)NC(=O)[C@@H]2C[C@@H](O)CN2C(=O)[C@@H](NC(=O)CCCCCCC(=O)N2CCN(CCC3(C)CCC(c4ccc(Cl)cc4)=C(CN4CCN(c5ccc(C(=O)NS(=O)(=O)c6ccc(N[C@H](CCN7CCOCC7)CSc7ccccc7)c(S(=O)(=O)C(F)(F)F)c6)cc5)CC4)C3)CC2)C(C)(C)C)cc1 (stereo partly drawn) [Compound 28, (2S,4R)-1-((2S)-2-(8-(4-(2-(4′-chloro-4-methyl-6-((4-(4-(((4-(((R)-4-morpholino-1-(phenylthio)butan-2-yl)amino)-3-((trifluoromethyl)sulfonyl)phenyl)sulfonyl)carbamoyl)phenyl)piperazin-1-yl)methyl)-2,3,4,5-tetrahydro-[1,1′-biphenyl]-4-yl)ethyl)piperazin-1-yl)-8-oxooctanamido)-3,3-dimethylbutanoyl)-4-hydroxy-N—((S)-1-(4-(4-methylthiazol-5-yl)phenyl)ethyl)pyrrolidine-2-carboxamide] | 100 to 500 nM | 20 to 100 nM | –
6 | Cc1ncsc1-c1ccc([C@H](C)NC(=O)[C@@H]2C[C@@H](O)CN2C(=O)[C@@H](NC(=O)CN(C)CCCNC(=O)c2ccc(N3CCN(C[C@]4(C)CCC(c5ccc(Cl)cc5)=C(CN5CCN(c6ccc(C(=O)NS(=O)(=O)c7ccc(N[C@H](CCN8CCCOCC8)CSc8ccccc8)c(S(=O)(=O)C(F)(F)F)c7)cc6)CC5)C4)CC3)nn2)C(C)(C)C)cc1 [Compound 112] | – | – | IC50 (MOLT-4; MOLT-4, 48 h, read-out: Anti-Cancer Activity IC50 (48 hr) MOLT-4): 20 to 100 nM; IC50 (RS4; 11; RS4-11, 48 h, read-out: Anti-Cancer Activity IC50 (48 hr) RS4, 11): < 20 nM
7 | Cc1ncsc1-c1ccc([C@H](C)NC(=O)[C@@H]2C[C@@H](O)CN2C(=O)[C@@H](NC(=O)CCCCCNC(=O)c2ccc(N3CCN(CC4(C)CCC(c5ccc(Cl)cc5)=C(CN5CCN(c6ccc(C(=O)NS(=O)(=O)c7ccc(N[C@H](CCN8CCOCC8)CSc8ccccc8)c(S(=O)(=O)C(F)(F)F)c7)cc6)CC5)C4)CC3)cn2)C(C)(C)C)cc1 (stereo partly shown) [Compound 5] | 20 to 100 nM | 100 to 500 nM | –
8 | Cc1ncsc1-c1ccc([C@H](C)NC(=O)[C@@H]2C[C@@H](O)CN2C(=O)[C@@H](NC(=O)CCCCCCC(=O)N2CCN(CC3(C)CCC(c4ccc(Cl)cc4)=C(CN4CCN(c5ccc(C(=O)NS(=O)(=O)c6ccc(N[C@H](CCN(C)C7CC7)CSc7ccccc7)c([N+](=O)[O-])c6)cc5)CC4)C3)CC2)C(C)(C)C)cc1 (stereo partly drawn) [Compound 35, (2S,4R)-1-((2S)-2-(8-(4-((4′-chloro-6-((4-(4-(((4-(((R)-4-(cyclopropyl(methyl)amino)-1-(phenylthio)butan-2-yl)amino)-3-nitrophenyl)sulfonyl)carbamoyl)phenyl)piperazin-1-yl)methyl)-4-methyl-2,3,4,5-tetrahydro-[1,1′-biphenyl]-4-yl)methyl)piperazin-1-yl)-8-oxooctanamido)-3,3-dimethylbutanoyl)-4-hydroxy-N—((S)-1-(4-(4-methylthiazol-5-yl)phenyl)ethyl)pyrrolidine-2-carboxamide] | 20 to 100 nM | – | Anti-Cancer Activity IC50 (48 hr) RS4; 11 (RS4; 11; Table 2, 48 hr, MTS): + ++
9 | Cc1ncsc1-c1ccc([C@H](C)NC(=O)[C@@H]2C[C@@H](O)CN2C(=O)[C@@H](NC(=O)CCCCCCC(=O)N2CCN(C[C@]3(C)CCC(c4ccc(Cl)cc4)=C(CN4CCN(c5ccc(C(=O)NS(=O)(=O)c6ccc(N[C@H](CCN7CCCOCC7)CSc7ccccc7)c([N+](=O)[O-])c6)cc5)CC4)C3)CC2)C(C)(C)C)cc1 [Compound 55, (2S,4R)-1-((S)-2-(8-(4-(((R)-6-((4-(4-(((4-(((R)-4-(1,4-oxazepan-4-yl)-1-(phenylthio)butan-2-yl)amino)-3-nitrophenyl)sulfonyl)carbamoyl)phenyl)piperazin-1-yl)methyl)-4′-chloro-4-methyl-2,3,4,5-tetrahydro-[1,1′-biphenyl]-4-yl)methyl)piperazin-1-yl)-8-oxooctanamido)-3,3-dimethylbutanoyl)-4-hydroxy-N—((S)-1-(4-(4-methylthiazol-5-yl)phenyl)ethyl)pyrrolidine-2-carboxamide] | < 20 nM | < 20 nM | IC50 (MOLT-4; [3]): 11 nM; IC50 (RS4; 11; [4]): 3.2 nM
10 | Cc1ncsc1-c1ccc([C@H](C)NC(=O)[C@@H]2C[C@@H](O)CN2C(=O)[C@@H](NC(=O)CCCCCCC(=O)N2CCN(C[C@]3(C)CCC(c4ccc(Cl)cc4)=C(CN4CCN(c5ccc(C(=O)NS(=O)(=O)c6ccc(N[C@H](CCN7CCc8cccnc8C7)CSc7ccccc7)c([N+](=O)[O-])c6)cc5)CC4)C3)CC2)C(C)(C)C)cc1 [Compound 57, (2S,4R)-1-((S)-2-(8-(4-(((R)-4′-chloro-6-((4-(4-(((4-(((R)-4-(5,8-dihydro-1,7-naphthyridin-7(6H)-yl)-1-(phenylthio)butan-2-yl)amino)-3-nitrophenyl)sulfonyl)carbamoyl)phenyl)piperazin-1-yl)methyl)-4-methyl-2,3,4,5-tetrahydro-[1,1′-biphenyl]-4-yl)methyl)piperazin-1-yl)-8-oxooctanamido)-3,3-dimethylbutanoyl)-4-hydroxy-N—((S)-1-(4-(4-methylthiazol-5-yl)phenyl)ethyl)pyrrolidine-2-carboxamide] | 100 to 500 nM | 20 to 100 nM | –
11 | Cc1ncsc1-c1ccc([C@H](C)NC(=O)[C@@H]2C[C@@H](O)CN2C(=O)[C@@H](NC(=O)CCCCCNC(=O)c2ccc(N3CCN(CCN(C)CC4(C)CCC(c5ccc(Cl)cc5)=C(CN5CCN(c6ccc(C(=O)NS(=O)(=O)c7ccc(N[C@H](CCN8CCOCC8)CSc8ccccc8)c(S(=O)(=O)C(F)(F)F)c7)cc6)CC5)C4)CC3)cc2)C(C)(C)C)cc1 (stereo partly shown) [Compound 15] | 20 to 100 nM | 20 to 100 nM | –
12 | Cc1ncsc1-c1ccc([C@H](C)NC(=O)[C@@H]2C[C@@H](O)CN2C(=O)[C@@H](NC(=O)CCCCC(=O)N2CCC(N3CCN(C[C@]4(C)CCC(c5ccc(Cl)cc5)=C(CN5CCN(c6ccc(C(=O)NS(=O)(=O)c7ccc(N[C@H](CCN8CCCOCC8)CSc8ccccc8)c(S(=O)(=O)C(F)(F)F)c7)cc6)CC5)C4)CC3)CC2)C(C)(C)C)cc1 [Compound 120] | – | – | IC50 (MOLT-4; MOLT-4, Table 2A, 48 hr, MTS, read-out: Anti-Cancer Activity IC50 (48 hr) MOLT-4): < 20 nM; IC50 (RS4; 11; RS4-11, Table 2A, 48 hr, MTS, read-out: Anti-Cancer Activity IC50 (48 hr) RS4, 11): < 20 nM
